Assay [1] concerns the target T1, PDE4A1 (Mus musculus, UniProt O89084).
T1 construct: targets used in the assays are full-length proteins (as opposed to simply the catalytic domain); expressed in transfected cells; host or cells: Schizosaccharomyces pombe, gene integrated at the cgs2 locus
T1 sequence (O89084 1-610 isoform O89084-2): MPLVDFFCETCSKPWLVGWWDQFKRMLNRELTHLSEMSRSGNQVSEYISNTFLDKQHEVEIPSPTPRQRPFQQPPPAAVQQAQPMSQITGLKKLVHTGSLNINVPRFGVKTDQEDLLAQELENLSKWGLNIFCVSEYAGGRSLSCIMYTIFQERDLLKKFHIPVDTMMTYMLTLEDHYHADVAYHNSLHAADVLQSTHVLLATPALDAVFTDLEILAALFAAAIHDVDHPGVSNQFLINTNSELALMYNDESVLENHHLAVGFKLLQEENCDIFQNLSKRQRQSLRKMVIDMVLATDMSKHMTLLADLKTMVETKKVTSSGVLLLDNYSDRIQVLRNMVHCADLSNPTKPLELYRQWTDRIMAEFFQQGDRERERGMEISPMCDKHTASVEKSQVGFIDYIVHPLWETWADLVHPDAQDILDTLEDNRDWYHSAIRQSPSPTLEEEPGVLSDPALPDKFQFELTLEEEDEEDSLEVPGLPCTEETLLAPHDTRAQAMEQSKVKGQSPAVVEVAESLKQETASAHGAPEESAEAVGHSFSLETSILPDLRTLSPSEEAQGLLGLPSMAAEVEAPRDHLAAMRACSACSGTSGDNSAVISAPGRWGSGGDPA
Kind of assay: IC50 on PDE4A1. It is filed as biochemical, murine. Conditions: read-out: IC50, PDE 4A1.

Assay [2] concerns the target T2, PDE4D3 (Homo sapiens, UniProt Q08499).
T2 construct: targets used in the assays are full-length proteins (as opposed to simply the catalytic domain); expressed in transfected cells; host or cells: Schizosaccharomyces pombe, gene integrated at the cgs2 locus
Nature of the assay: IC50 on PDE4D3. Format: biochemical. Conditions: read-out: IC50, PDE 4D3.

In assay [3] the test system is PDE2A, PDE4A, PDE4B, Cgs2. Nature of the assay: High throughput 5FOA growth screens of bioactive libraries. Format: cell-based, murine; Schizosaccharomyces pombe. Conditions: average 20 μM; composite Z score cut-off ≧8.53. The method, then: High throughput drug screens were carried out at the Broad Institute's Chemical Biology Program screening facility (Broad Institute, Cambridge, Mass.). Depending upon the strain, cultures were pregrown to exponential phase in EMM complete medium containing from 0.5 to 2.5 mM cAMP to repress fbp1-ura4 transcription. […] Starting cell concentrations ranged from 0.5×10^5 to 4×10^5 cells/ml depending on the screening strain. […] Other positive control dishes contained 5 mM cAMP in the 5FOA medium. Cultures were grown for 48 hours at 30° C., sealed in an airtight container with moist paper towels to prevent evaporation. Optical densities (OD600) of cultures were measured using a microplate reader. Bioinformatic analysis of the results to determine composite Z scores was performed as previously described^30, 31.

For assay [4], the system named is PDE4A, PDE4B, PDE4D, PDE7A. Nature of the assay: Overall PDE inhibitor profile from the yeast assays (table footnotes, summary). It is filed as cell-based. The source says: PDE inhibitors were identified using methods described herein, such as high throughput drug screens on genetically engineered fission yeast strains that express drug targets (e.g., PDE4A and/or PDE4B, which are anti-inflammatory targets). PDE inhibitors were identified based on their ability to stimulate growth and compounds were identified because they were effective in live cells. In addition, targets used in the assays are full-length proteins (as opposed to simply the catalytic domain) and the assay used included a built-in toxicity test, permeability test and stability test. The inhibitors identified display a very high degree of target specificity. Compounds identified include inhibitors that act on two of three PDE4 family enzymes and inhibitors that act on combinations of PDE4 and PDE7 strains. […] Limited inhibition of PDE4D by a PDE inhibitor is desirable, in view of the fact that inhibition of PDE4D causes emesis and cardiac arrhythmias. Subtype specificity was confirmed by means of cAMP assays.
(§1) Cells were pregrown in EMM medium [MP Biomedicals (Solon, OH), 3% glucose, filter-sterilized to avoid carmelization, which would introduce variability into the optical density of the medium] containing from 0 mM to 2.5 mM cAMP (or either 0.5 mM or 1.0 mM cGMP). This was to repress expression of the fbp1-ura4 reporter prior to exposure of cells to 5FOA medium. Cells were grown at 30° C. to exponential phase (approximately 10^7 cells/ml). Cells were collected by centrifugation and resuspended in 5FOA medium, and 25 μl were transferred to 384-well microtiter dishes (untreated, with flat clear bottoms) that had been pre-filled with 25 μl 5FOA medium and pre-pinned with 100 nl of compounds (stock solutions were generally 10 mM). Starting cell concentrations ranged from 0.5×10^5 to 4×10^5 cells/ml depending on the screening strain. […] Other positive control dishes contained 5 mM cAMP in the 5FOA medium for PDEs that lack appropriate control compounds. Cultures were grown for 48 hours at 30° C., sealed in an airtight container with moist paper towels to prevent evaporation. Optical densities (OD600) of cultures were measured using a microplate reader. Bioinformatic analysis of the results to determine composite Z scores was performed as previously described (1, 3).

The target in assay [5] is T3, PDE8A (Mus musculus, UniProt O88502).
T3 construct: targets used in the assays are full-length proteins (as opposed to simply the catalytic domain); expressed in transfected cells; host or cells: Schizosaccharomyces pombe strains DDP13 and CHP1141
T3 sequence (O88502 1-823): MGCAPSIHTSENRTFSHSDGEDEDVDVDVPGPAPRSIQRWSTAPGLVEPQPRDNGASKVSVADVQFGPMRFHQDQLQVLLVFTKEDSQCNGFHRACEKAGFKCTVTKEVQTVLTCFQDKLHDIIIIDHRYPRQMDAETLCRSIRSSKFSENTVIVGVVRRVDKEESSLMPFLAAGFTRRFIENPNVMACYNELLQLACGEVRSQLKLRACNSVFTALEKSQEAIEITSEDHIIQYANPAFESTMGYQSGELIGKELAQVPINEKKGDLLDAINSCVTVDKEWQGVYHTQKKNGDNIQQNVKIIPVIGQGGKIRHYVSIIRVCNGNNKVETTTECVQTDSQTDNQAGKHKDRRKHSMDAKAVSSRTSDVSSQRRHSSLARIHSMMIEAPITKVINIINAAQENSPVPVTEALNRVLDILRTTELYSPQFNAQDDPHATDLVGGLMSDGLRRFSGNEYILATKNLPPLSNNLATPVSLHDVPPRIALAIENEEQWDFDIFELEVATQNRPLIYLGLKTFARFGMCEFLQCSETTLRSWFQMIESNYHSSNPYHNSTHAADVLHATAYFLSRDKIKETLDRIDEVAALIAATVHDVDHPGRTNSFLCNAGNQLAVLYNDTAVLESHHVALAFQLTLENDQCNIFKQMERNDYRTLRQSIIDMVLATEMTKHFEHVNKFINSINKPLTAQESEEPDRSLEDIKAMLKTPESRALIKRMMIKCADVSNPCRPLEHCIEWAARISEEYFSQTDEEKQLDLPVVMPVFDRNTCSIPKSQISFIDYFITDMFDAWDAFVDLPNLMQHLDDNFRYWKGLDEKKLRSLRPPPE
Kind of assay: fbp1-lacZ β-galactosidase assay, PDE8A strain DDP13. The note with it: possibly a permeability problem in the yeast. Format: cell-based, murine. As for the experimental part: β-galactosidase assays and characterization of 5FOA-sensitivity were carried out as previously described^10. cAMP assays were performed on exponential phase cells grown in EMM complete medium (3% glucose), using the Assay Designs cAMP EIA kit, according to manufacturer's instructions (Assay Designs, Ann arbor, MI).
The effect of known PDE inhibitors on the expression of the fbp1-lacZ fusion in murine PDE-expressing strains was tested. […] For Table 4 β-galactosidase activity was determined from 3 to 4 independent exponential phase cultures. The average±SD represents specific activity per milligram of soluble protein.

In assay [6] the target is T4, PDE7A (Homo sapiens, UniProt Q13946).
T4 construct: targets used in the assays are full-length proteins (as opposed to simply the catalytic domain); expressed in transfected cells; host or cells: Schizosaccharomyces pombe, gene integrated at the cgs2 locus
Kind of assay: Fission yeast 5FOA growth assay, strain expressing PDE7A. Format: cell-based. The note with it: 5FOA growth. The method, then:
as §1

The source of these data is US20100179158A1, “INHIBITORS OF CYCLIC AMP PHOSPHODIESTERASES” (priority 2007, published 2010).

pIC50: −log10 of the molar value.

T2 sequence (Q08499 1-673 isoform Q08499-2): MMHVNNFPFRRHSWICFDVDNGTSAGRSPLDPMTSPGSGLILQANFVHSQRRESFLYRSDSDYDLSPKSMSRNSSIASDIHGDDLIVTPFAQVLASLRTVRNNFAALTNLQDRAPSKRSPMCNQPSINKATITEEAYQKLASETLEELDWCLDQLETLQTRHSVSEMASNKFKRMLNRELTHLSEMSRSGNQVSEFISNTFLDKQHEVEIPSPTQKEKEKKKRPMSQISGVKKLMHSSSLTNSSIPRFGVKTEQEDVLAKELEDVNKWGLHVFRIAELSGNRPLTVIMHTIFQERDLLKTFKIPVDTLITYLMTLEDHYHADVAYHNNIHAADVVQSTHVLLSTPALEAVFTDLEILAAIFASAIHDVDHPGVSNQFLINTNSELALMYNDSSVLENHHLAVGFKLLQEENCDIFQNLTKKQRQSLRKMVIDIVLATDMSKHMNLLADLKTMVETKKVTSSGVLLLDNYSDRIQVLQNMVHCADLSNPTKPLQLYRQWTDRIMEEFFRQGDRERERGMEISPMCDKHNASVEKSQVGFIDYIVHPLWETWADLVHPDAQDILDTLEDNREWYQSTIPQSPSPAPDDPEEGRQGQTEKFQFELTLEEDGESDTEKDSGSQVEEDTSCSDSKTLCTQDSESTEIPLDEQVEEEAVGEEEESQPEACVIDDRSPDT
T4 sequence (Q13946 whole entry, the tested form may be a part): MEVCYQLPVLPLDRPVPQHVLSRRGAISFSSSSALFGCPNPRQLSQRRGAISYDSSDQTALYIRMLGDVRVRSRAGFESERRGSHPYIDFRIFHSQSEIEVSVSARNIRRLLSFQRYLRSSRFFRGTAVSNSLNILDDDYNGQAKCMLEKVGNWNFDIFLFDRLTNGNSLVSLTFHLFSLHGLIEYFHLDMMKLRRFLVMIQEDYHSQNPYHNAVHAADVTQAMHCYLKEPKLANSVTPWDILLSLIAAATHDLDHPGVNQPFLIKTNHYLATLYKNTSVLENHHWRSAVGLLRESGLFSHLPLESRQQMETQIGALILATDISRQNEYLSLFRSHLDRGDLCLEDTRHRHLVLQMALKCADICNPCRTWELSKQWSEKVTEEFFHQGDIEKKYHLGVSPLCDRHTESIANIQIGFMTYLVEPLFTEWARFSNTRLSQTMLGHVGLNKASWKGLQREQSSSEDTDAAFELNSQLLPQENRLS

In general, pIC50 refers to the negative decadic logarithm of the IC50, by convention in mol/L. Take `CC(C)n1c2ccc(Cl)cc2c2nc3ccccc3nc21` [Compound 35]: the pIC50 is 7.00 in assay [1] and 7.46 in assay [2].
In the case of `COc1c2occc2c(OC)c2c(=O)cc(C)oc12` [khellin], in assay [3], the “Result in high throughput screens for 5FOA-resistant growth” value (“Result in high throughput screens” for short) is on record as “identified”.
On to `C=CCn1c2ccc(Br)cc2c2nc3ccccc3nc21` [2019, G03], for which, in assay [4], the “PDE inhibitor profile in words (table footnote / summary)” value is “(2)-(4) Moderate PDE4A, 4B inhibitors”.
Turning to `CCC(=O)C1=C(C)N(c2ccc(F)cc2)C(=O)/C1=C\c1cccs1` [Compound 27-6], the “PDE inhibitor profile in words (table footnote / summary)” value in assay [4] is listed as “(4) Strong PDE4A, 4B inhibitor, Moderate PDE7A inhibitor”.
On the same count and under the same terms, next, `COC(=O)C1=C(C)N(Cc2ccccc2)C(=O)/C1=C\c1cccs1` [Compound 27-4]: “(1) Strong PDE4A, 4B inhibitor”; `COc1ccc2c(c1)[C@]1(C)CCC[C@@](C)(CO)C1CC2` (some centres unmarked) [Compound 2067M03]: “(1) Strong PDE7A inhibitor, Weak to moderate PDE4A, 4B inhibitor”.
On the same count and under the same terms, then `COC(=O)C1=C(C)N(CC(C)C)C(=O)/C1=C\c1cccs1` [Compound 27-3], with “(1) Strong PDE4A, 4B inhibitor”; and `N#Cc1sc2sc(C#N)c(-c3ccc(Cl)cc3)c2c1N` [Compound 30-3], with “(3) Little/no activity under conditions used”.
On the same count and under the same terms, then `N#Cc1sc2sc(C#N)c(-c3cccs3)c2c1N` [Compound 30-2], with “(1) Weak PDE7A inhibitor”.
As to `C=CCn1c2ccc(Br)cc2c2nc3ccccc3nc21` [2017, C18], the “PDE inhibitor profile in words (table footnote / summary)” value in assay [4] is “(2)-(4) Moderate PDE4A, 4B inhibitors”.
Still for that read-out and setting: next, `C=Cn1c2ccccc2c2nc3ccccc3nc21` [2033, H06]: “(1) Moderate to strong PDE4A, 4B inhibitor”.
The same measure, in the same setting: then `CC(C)Cn1c2ccc(Br)cc2c2nc3ccccc3nc21` [2015, L04], with “(5) Moderate 4B inhibitor”.
Same read-out and setting: then `CCCCn1c2ccccc2c2nc3ccccc3nc21` [2015, P06], with “(2)-(4) Moderate PDE4A, 4B inhibitors”; and `COC(=O)C1=C(C)N(C)C(=O)/C1=C\c1cccs1` [Compound 27-2], with “(2) Strong PDE4A, 4B inhibitor; Moderate PDE4D inhibitor”.
On to `OCCN(CCO)c1nc(N2CCCCC2)c2nc(N(CCO)CCO)nc(N3CCCCC3)c2n1` [dipyridamole], for which the “Inhibition of PDE8A in yeast” value in assay [5] is “not able to be inhibited”.
With `COC(=O)C1=C(C)N(C)C(=O)/C1=C\c1cccs1` [Compound 27-1], the “PDE inhibitor profile in words (table footnote / summary)” value in assay [4] is given as “(1) Strong PDEA5 inhibitor”.
As for `Cc1cc2cc3c(C)cc(=O)oc3c(C)c2o1` [trioxsalen], the “Result in high throughput screens” value in assay [3] is reported as “identified”.
Consider `CCCCn1c2ccccc2c2nc3ccccc3nc21` [2013, I20], for which the “PDE inhibitor profile in words (table footnote / summary)” value in assay [4] is “(2) Strong PDE4A inhibitor”.
For `CC(C)(C)c1c(C#N)sc2sc(C#N)c(N)c12` [Compound 30-4], the “ED50, PDE 7A” value in assay [6] is on record as “ND ND weak activity ND ND”. Besides, the “PDE inhibitor profile in words (table footnote / summary)” value in assay [4] is “(3) Little/no activity under conditions used”.
Regarding `CC(C)Cn1c2ccccc2c2nc3ccccc3nc21` [1422, M02], in assay [4], the “PDE inhibitor profile in words (table footnote / summary)” value is reported as “(1) Strong PDE4A inhibitor”.
The same measure, in the same setting: next, `CCC(=O)C1=C(C)N(c2cccc(C(F)(F)F)c2)C(=O)/C1=C\c1cccs1` [Compound 27-7]: “(3) Strong PDE4A5 inhibitor”; `COC(=O)C1=C(C)N(c2ccccc2Cl)C(=O)/C1=C\c1ccco1` [Compound 27-8]: “(2) Strong PDE4A, 4B inhibitor”; `C=CCn1c2ccccc2c2nc3ccccc3nc21` [1427, P20]: “(3) Strong 4B, Moderate 4A inhibitor”.
The same measure, in the same setting: next, `COC(=O)C1=C(C)N(c2cccc(C)c2)C(=O)/C1=C\c1cccs1` [Compound 27-5]: “(2) Strong PDE4A, 4B inhibitor, Moderate PDE4D inhibitor”; `Cc1cc(C)nc(SCC[S+]([O-])c2ccc(C(C)(C)C)cc2)n1` (centres unmarked) [Compound 26-2]: “(2) Moderate 4A inhibitor”.
As for `Cc1ccc2c(c1)CC[C@@H]1CC(=O)CC[C@@]21C` [Compound 2158J12], the “PDE inhibitor profile in words (table footnote / summary)” value in assay [4] is “(2) Strong PDE7A and PDE4s (including D) inhibitor”.
Same read-out and setting: next, `N#Cc1sc2sc(C#N)c(-c3ccco3)c2c1N` [Compound 30]: “(2) Strong PDE7A inhibitor”.
Still for that read-out and setting: then `O=C(O)Cn1c2ccc(Cl)cc2c2nc3ccccc3nc21` [1429, L06], with “(4) Moderate PDE4A, 4B inhibitor”.
Turning to `COc1c2ccoc2cc2oc(C)cc(=O)c12` [visnagin], the “Result in high throughput screens” value in assay [3] is listed as “identified”.
With `CCOC(=O)c1sc2sc(C(=O)OCC)c(-c3ccco3)c2c1N` [Compound 30-1], in assay [4], the “PDE inhibitor profile in words (table footnote / summary)” value is listed as “(4) Weak PDE4A inhibitor”.
